Data from PubChem BioAssay AID1259407 (Chemical Carcinogenesis Research Information System (CCRIS), 2018).
The source made the active and inactive calls. The rule behind the calls is not given here.

Test system: CCRIS mutagenicity, Ames/micronucleus/aberration tests
Assay: CCRIS mutagenicity studies

Measured: mutagenic call

Nc1ccc(-c2ccc(N)cc2)cc1
inactive: Test System: AMES SALMONELLA TYPHIMURIUM, Strain/Indicator: TA100, Metabolic Activation: S-9, Method: STANDARD PLATE inactive; negative | Test System: AMES SALMONELLA TYPHIMURIUM, Strain/Indicator: TA100, Metabolic Activation: TOBACCO CELL-FREE TXIMX, Method: PREINCUBATION inactive; negative | Test System: AMES SALMONELLA TYPHIMURIUM, Strain/Indicator: YG1026, Metabolic Activation: TOBACCO CELL-FREE TXIMX, Method: PREINCUBATION inactive; negative | Test System: AMES SALMONELLA TYPHIMURIUM, Strain/Indicator: YG1026, Metabolic Activation: TOBACCO TX1 CELLS, Method: PREINCUBATION inactive; negative | Test System: Ames Salmonella typhimurium, Strain/Indicator: TA102, Metabolic Activation: None, Method: Preincubation inactive; negative | Test System: CHINESE HAMSTER OVARY, Strain/Indicator: CHO-K1-BH4 (HGPRT)/6-THIOGUANINE, Metabolic Activation: RAT, LIVER, S-9, Method: SUSPENSION/PLATE inactive; negative | Test System: CHINESE HAMSTER V-79, Strain/Indicator: V-79/6-THIOGUANINE, Metabolic Activation: NONE, Method: SUSPENSION/PLATE inactive; negative | Test System: CHINESE HAMSTER V-79, Strain/Indicator: V-79/6-THIOGUANINE, Metabolic Activation: RAT, LIVER, S-9, AROCLOR 1254, Method: SUSPENSION/PLATE inactive; negative | Test System: CHINESE HAMSTER V-79, Strain/Indicator: V-79/6-THIOGUANINE, Metabolic Activation: RAT, LIVER, S-9, PHENOBARBITAL AND BETA-NAPHTHOFLAVONE, Method: SUSPENSION/PLATE inactive; negative | Test System: MOUSE LYMPHOMA, Strain/Indicator: L5178Y (HGPRT)/6-THIOGUANINE, Metabolic Activation: NONE, Method: SUSPENSION/PLATE inactive; negative | Test System: MOUSE LYMPHOMA, Strain/Indicator: L5178Y (HGPRT)/6-THIOGUANINE, Metabolic Activation: RAT, LIVER, S-9, AROCLOR 1254, Method: SUSPENSION/PLATE inactive; negative | Test System: MOUSE LYMPHOMA, Strain/Indicator: L5178Y (HPRT), Metabolic Activation: NONE, Method: SUSPENSION/PLATE inactive; negative
active: Test System: AMES SALMONELLA TYPHIMURIUM, Strain/Indicator: TA100, Metabolic Activation: RAT, BLADDER, S-9, PCB, Method: FLUCTUATION TEST active; positive | Test System: AMES SALMONELLA TYPHIMURIUM, Strain/Indicator: TA1538, Metabolic Activation: GUINEA PIG, LIVER, INTACT HEPATOCYTES, Method: PREINCUBATION active; positive | Test System: AMES SALMONELLA TYPHIMURIUM, Strain/Indicator: TA1538, Metabolic Activation: GUINEA PIG, LIVER, S-9, ACETYL COENZYME A, Method: PREINCUBATION active; positive | Test System: AMES SALMONELLA TYPHIMURIUM, Strain/Indicator: TA1538, Metabolic Activation: GUINEA PIG, LIVER, S-9, Method: PREINCUBATION active; positive | Test System: AMES SALMONELLA TYPHIMURIUM, Strain/Indicator: TA1538, Metabolic Activation: HAMSTER, LIVER, INTACT HEPATOCYTES, Method: PREINCUBATION active; positive | Test System: AMES SALMONELLA TYPHIMURIUM, Strain/Indicator: TA1538, Metabolic Activation: HAMSTER, LIVER, S-9, ACETYL COENZYME A, Method: PREINCUBATION active; positive | Test System: AMES SALMONELLA TYPHIMURIUM, Strain/Indicator: TA1538, Metabolic Activation: HAMSTER, LIVER, S-9, Method: PREINCUBATION active; positive | Test System: AMES SALMONELLA TYPHIMURIUM, Strain/Indicator: TA1538, Metabolic Activation: HAMSTER, LIVER, S-9, Method: STANDARD PLATE active; positive | Test System: AMES SALMONELLA TYPHIMURIUM, Strain/Indicator: TA1538, Metabolic Activation: RAT, LIVER, INTACT HEPATOCYTES, Method: PREINCUBATION active; positive | Test System: AMES SALMONELLA TYPHIMURIUM, Strain/Indicator: TA1538, Metabolic Activation: RAT, LIVER, S-9, ACETYL COENZYME A, Method: PREINCUBATION active; positive | Test System: AMES SALMONELLA TYPHIMURIUM, Strain/Indicator: TA1538, Metabolic Activation: RAT, LIVER, S-9, AROCLOR 1254, Method: STANDARD PLATE active; positive | Test System: AMES SALMONELLA TYPHIMURIUM, Strain/Indicator: TA1538, Metabolic Activation: RAT, LIVER, S-9, PHENOBARBITAL, Method: STANDARD PLATE active; positive | Test System: AMES SALMONELLA TYPHIMURIUM, Strain/Indicator: TA1538, Metabolic Activation: RAT, LIVER, S-9, Method: PREINCUBATION active; positive | Test System: AMES SALMONELLA TYPHIMURIUM, Strain/Indicator: YG1021, Metabolic Activation: TOBACCO CELL-FREE TXIMX, Method: PREINCUBATION active; positive | Test System: AMES SALMONELLA TYPHIMURIUM, Strain/Indicator: YG1021, Metabolic Activation: TOBACCO TX1 CELLS, Method: PREINCUBATION active; positive | Test System: AMES SALMONELLA TYPHIMURIUM, Strain/Indicator: YG1024, Metabolic Activation: HUMAN, HEPATOMA CELLS, BENZO[A]ANTHRACENE, Method: PREINCUBATION active; positive | Test System: AMES SALMONELLA TYPHIMURIUM, Strain/Indicator: YG1024, Metabolic Activation: HUMAN, HEPATOMA CELLS, Method: PREINCUBATION active; positive | Test System: AMES SALMONELLA TYPHIMURIUM, Strain/Indicator: YG1024, Metabolic Activation: PLANT CELLS, Method: PREINCUBATION active; positive | Test System: AMES SALMONELLA TYPHIMURIUM, Strain/Indicator: YG1024, Metabolic Activation: RAT, LIVER, S-9, AROCLOR 1254, Method: PREINCUBATION active; positive | Test System: AMES SALMONELLA TYPHIMURIUM, Strain/Indicator: YG1024, Metabolic Activation: RAT, LIVER, S-9, Method: PREINCUBATION active; positive | Test System: AMES SALMONELLA TYPHIMURIUM, Strain/Indicator: YG1024, Metabolic Activation: TOBACCO CELL-FREE EXTRACT, Method: PREINCUBATION active; positive | Test System: AMES SALMONELLA TYPHIMURIUM, Strain/Indicator: YG1024, Metabolic Activation: TOBACCO CELL-FREE TXIMX, Method: PREINCUBATION active; positive | Test System: AMES SALMONELLA TYPHIMURIUM, Strain/Indicator: YG1024, Metabolic Activation: TOBACCO TX1 CELLS, Method: PREINCUBATION active; positive | Test System: AMES SALMONELLA TYPHIMURIUM, Strain/Indicator: YG1029, Metabolic Activation: TOBACCO CELL-FREE TXIMX, Method: PREINCUBATION active; positive | Test System: AMES SALMONELLA TYPHIMURIUM, Strain/Indicator: YG1029, Metabolic Activation: TOBACCO TX1 CELLS, Method: PREINCUBATION active; positive | Test System: Ames Salmonella typhimurium, Strain/Indicator: TA98, Metabolic Activation: Rat, Liver, S-9, Sodium phenobarbitone, Method: Preincubation active; positive, test conducted under both aerobic and anaerobic conditions. | Test System: Ames Salmonella typhimurium, Strain/Indicator: TA102, Metabolic Activation: Rat, Liver, S-9, Aroclor 1254 in 0.154 M KCl, Method: Preincubation active; positive (coumestrol, ellagic acid, (-) epicatechin, (-) epichatechingallate, ga | Test System: Ames Salmonella typhimurium, Strain/Indicator: TA102, Metabolic Activation: Rat, liver, S-9, Aroclor 1254, 4%, Method: Preincubation active; positive | Test System: Ames Salmonella typhimurium, Strain/Indicator: TA1538, Metabolic Activation: Rat, Liver, S-9, Sodium phenobarbitone, Method: Preincubation active; positive, test conducted under both aerobic and anaerobic conditions. | Test System: CHINESE HAMSTER OVARY, Strain/Indicator: CHO-K1-BH4 (HGPRT), Metabolic Activation: RAT, LIVER, S-9, AROCLOR, Method: SUSPENSION/PLATE active; positive | Test System: CHINESE HAMSTER V-79, Strain/Indicator: V-79/6-THIOGUANINE, Metabolic Activation: MOUSE, LIVER, S-9, Method: SUSPENSION/PLATE active; positive | Test System: MOUSE LYMPHOMA, Strain/Indicator: L5178Y (TK+/TK-)/TRIFLUOROTHYMIDINE, Metabolic Activation: NONE, Method: SUSPENSION/PLATE active; positive | Test System: MOUSE LYMPHOMA, Strain/Indicator: L5178Y (TK+/TK-)/TRIFLUOROTHYMIDINE, Metabolic Activation: RAT, LIVER, S-9, AROCLOR 1254, Method: SUSPENSION/PLATE active; positive | Test System: MOUSE LYMPHOMA, Strain/Indicator: L5178Y (TK+/TK-), Metabolic Activation: NONE, Method: SUSPENSION/PLATE active; positive | Test System: MOUSE LYMPHOMA, Strain/Indicator: L5178Y (TK+/TK-), Metabolic Activation: RAT, LIVER, S-9, AROCLOR 1254, Method: SUSPENSION/PLATE active; positive | Test System: MOUSE LYMPHOMA, Strain/Indicator: L5178Y (TK+/TK-), Metabolic Activation: S-9, Method: SUSPENSION/PLATE active; positive | Test System: UDS RODENT HEPATOCYTES, Strain/Indicator: THY INCORP (NON-S-PHASE), Method: AUTORADIOGRAPHY active; positive
